# Source: patent US8129417B2, “Substituted octahydrocyclopenta[C]pyrrol-4-amines as calcium channel blockers” (Abbott Laboratories, priority 2008, dated 2012)
# Biological target: human Cav2.2 (Homo sapiens, UniProt Q00975)
# Assay: Assessment of calcium channel activity using FLIPR (Ca2+ influx in IMR32 cells)
# Assay type: cell-based
# Settings: 60 minute pre-incubation with compound, 2 μM nifedipine, depolarized with 80 mM KCl
# Procedure, shortened: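 IC50 came from sigmoidal non-linear regression of percent inhibition, relative to uninhibited activity, across compound concentrations. Calcium influx was measured by FLIPR in IMR32 cells plated at 1-1.2×10^5 cells/well and cultured 48 h at 37 °C.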
# Sequence of human Cav2.2 (Q00975 whole entry): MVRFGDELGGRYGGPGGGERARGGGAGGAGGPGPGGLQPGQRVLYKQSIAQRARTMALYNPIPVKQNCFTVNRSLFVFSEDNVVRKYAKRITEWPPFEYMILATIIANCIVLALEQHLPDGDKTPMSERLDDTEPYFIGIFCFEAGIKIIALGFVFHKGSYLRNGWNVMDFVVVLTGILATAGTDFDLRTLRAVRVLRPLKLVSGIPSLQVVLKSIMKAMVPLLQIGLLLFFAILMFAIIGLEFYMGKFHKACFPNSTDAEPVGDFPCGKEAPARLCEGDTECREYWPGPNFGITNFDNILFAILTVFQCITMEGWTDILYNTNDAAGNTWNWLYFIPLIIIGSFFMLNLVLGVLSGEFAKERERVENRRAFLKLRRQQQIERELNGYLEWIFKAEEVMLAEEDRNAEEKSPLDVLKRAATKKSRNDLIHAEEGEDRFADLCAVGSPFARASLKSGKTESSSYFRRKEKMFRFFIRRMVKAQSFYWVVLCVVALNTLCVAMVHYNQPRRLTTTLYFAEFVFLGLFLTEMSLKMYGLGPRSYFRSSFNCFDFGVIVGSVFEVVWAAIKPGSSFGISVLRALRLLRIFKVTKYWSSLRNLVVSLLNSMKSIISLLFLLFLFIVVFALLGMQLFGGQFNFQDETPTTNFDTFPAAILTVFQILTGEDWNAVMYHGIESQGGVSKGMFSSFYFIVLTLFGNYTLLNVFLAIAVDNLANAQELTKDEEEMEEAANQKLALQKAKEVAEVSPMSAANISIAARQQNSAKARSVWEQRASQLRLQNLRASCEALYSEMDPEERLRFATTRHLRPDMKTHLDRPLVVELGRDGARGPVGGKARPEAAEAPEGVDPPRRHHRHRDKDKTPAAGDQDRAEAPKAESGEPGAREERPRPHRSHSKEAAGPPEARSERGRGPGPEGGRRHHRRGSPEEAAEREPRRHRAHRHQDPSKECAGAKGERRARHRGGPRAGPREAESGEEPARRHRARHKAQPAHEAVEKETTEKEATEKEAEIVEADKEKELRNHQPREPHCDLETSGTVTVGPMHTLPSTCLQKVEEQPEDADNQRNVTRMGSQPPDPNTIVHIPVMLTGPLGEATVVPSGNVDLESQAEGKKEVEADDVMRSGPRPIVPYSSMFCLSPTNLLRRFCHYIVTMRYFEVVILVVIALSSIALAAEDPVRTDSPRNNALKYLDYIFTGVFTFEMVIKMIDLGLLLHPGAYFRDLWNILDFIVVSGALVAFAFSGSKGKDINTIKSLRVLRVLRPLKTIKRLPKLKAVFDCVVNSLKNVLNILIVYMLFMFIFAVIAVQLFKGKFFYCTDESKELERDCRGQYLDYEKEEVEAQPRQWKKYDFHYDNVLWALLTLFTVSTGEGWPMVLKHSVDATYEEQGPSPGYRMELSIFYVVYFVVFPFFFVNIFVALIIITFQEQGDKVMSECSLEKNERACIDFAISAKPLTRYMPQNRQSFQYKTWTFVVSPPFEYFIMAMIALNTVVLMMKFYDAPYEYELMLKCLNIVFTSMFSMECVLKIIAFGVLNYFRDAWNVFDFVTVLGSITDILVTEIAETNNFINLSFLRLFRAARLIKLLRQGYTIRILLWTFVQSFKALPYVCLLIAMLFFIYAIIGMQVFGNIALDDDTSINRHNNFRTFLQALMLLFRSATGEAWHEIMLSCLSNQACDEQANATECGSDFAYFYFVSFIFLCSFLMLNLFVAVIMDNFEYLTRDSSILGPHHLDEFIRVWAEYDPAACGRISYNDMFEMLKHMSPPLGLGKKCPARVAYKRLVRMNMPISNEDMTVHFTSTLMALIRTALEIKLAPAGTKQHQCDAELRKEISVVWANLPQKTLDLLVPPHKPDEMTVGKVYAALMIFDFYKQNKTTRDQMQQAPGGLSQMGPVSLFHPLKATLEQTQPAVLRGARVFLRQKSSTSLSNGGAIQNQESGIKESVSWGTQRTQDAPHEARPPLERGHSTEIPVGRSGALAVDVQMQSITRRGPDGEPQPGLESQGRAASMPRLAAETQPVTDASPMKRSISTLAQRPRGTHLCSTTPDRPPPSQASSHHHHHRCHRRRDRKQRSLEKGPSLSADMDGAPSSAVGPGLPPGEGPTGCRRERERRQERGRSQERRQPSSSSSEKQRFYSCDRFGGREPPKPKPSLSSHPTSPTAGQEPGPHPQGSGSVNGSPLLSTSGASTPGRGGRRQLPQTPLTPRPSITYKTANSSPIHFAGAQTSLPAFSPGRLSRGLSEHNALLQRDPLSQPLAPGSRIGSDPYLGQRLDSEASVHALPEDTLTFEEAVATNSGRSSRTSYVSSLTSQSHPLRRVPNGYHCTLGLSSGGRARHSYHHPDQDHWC
# Sequence of human Cav2.2 (P54289 25-946 partner limits assumed): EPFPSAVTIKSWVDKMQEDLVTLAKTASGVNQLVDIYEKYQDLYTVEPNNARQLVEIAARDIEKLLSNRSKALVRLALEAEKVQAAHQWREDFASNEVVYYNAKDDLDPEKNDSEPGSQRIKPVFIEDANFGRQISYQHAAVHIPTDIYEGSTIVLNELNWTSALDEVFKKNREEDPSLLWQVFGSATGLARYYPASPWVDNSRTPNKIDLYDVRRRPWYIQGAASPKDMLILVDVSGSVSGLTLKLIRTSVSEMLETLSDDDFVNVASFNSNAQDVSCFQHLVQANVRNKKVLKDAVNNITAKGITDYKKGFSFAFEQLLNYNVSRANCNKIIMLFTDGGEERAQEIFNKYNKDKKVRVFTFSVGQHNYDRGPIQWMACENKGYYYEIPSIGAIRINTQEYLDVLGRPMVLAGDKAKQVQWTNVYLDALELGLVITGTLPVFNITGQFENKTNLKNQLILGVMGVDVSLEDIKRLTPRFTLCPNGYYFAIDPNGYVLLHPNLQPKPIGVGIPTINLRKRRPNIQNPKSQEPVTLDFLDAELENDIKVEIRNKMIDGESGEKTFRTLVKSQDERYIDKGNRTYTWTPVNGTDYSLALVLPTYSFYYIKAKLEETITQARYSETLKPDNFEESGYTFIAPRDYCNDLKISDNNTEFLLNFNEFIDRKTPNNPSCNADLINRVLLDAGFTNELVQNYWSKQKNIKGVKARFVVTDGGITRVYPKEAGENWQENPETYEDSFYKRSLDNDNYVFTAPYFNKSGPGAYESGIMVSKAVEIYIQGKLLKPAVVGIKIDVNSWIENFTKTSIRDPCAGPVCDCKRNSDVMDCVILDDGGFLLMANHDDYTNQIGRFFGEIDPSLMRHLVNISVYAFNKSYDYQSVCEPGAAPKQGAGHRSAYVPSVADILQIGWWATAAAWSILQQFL
# Sequence of human Cav2.2 (P54289 947-1103 partner limits assumed): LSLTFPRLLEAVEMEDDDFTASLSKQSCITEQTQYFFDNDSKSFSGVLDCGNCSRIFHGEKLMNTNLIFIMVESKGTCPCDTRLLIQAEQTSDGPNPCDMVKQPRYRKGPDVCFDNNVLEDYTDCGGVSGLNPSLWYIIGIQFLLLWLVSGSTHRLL
# Sequence of human Cav2.2 (P54284 whole entry partner): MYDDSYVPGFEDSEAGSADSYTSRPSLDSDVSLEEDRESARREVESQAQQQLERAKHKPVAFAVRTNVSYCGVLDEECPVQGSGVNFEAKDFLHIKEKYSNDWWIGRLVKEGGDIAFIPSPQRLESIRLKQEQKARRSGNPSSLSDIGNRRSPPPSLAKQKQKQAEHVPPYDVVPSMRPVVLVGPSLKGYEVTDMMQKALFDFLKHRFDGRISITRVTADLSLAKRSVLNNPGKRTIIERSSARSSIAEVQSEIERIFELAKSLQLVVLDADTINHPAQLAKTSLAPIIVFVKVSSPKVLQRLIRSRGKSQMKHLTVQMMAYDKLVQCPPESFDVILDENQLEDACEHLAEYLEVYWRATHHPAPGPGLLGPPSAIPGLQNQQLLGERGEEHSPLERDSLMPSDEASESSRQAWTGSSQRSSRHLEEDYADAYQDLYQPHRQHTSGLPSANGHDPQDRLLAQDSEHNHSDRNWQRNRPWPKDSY
row,IC50,Structure (SMILES)
1,2600 nM,"CC(C)C[C@@H](C(=O)N[C@@H]1CC[C@@H]2CN(S(=O)(=O)c3ccc(C(F)(F)F)cc3)C[C@@H]21)N(C)C(=O)OC(C)(C)C [Example 329, tert-butyl methyl((S)-4-methyl-1-oxo-1-((3aR,4R,6aS)-2-(4-(trifluoromethyl)phenylsulfonyl)octahydrocyclopenta[c]pyrrol-4-ylamino)pentan-2-yl)carbamate]"
2,1110 nM,"CCC[C@@H](C(=O)N[C@@H]1CC[C@H]2CN(S(=O)(=O)c3ccc(F)cc3)C[C@H]21)N(C)C(=O)OC(C)(C)C [Example 330, tert-butyl(S)-1-((3aS,4R,6aR)-2-(4-fluorophenylsulfonyl)octahydrocyclopenta[c]pyrrol-4-ylamino)-1-oxopentan-2-yl(methyl)carbamate]"
3,750 nM,"CCC[C@@H](C(=O)N[C@@H]1CC[C@H]2CN(S(=O)(=O)c3ccc(C(F)(F)F)cc3)C[C@H]21)N(C)C(=O)OC(C)(C)C [Example 331, tert-butyl methyl((S)-1-oxo-1-((3aS,4R,6aR)-2-(4-(trifluoromethyl)phenylsulfonyl)octahydrocyclopenta[c]pyrrol-4-ylamino)pentan-2-yl)carbamate]"
4,480 nM,"CC[C@H](C)[C@@H](C(=O)N[C@H]1CC[C@@H]2CN(S(=O)(=O)c3cccc(C(F)(F)F)c3)C[C@@H]21)N(C)C(=O)OC(C)(C)C [Example 332, tert-butyl methyl((2S,3S)-3-methyl-1-oxo-1-((3aR,4S,6aS)-2-(3-(trifluoromethyl)phenylsulfonyl)octahydrocyclopenta[c]pyrrol-4-ylamino)pentan-2-yl)carbamate]"
5,570 nM,"CC[C@H](C)[C@@H](C(=O)N[C@H]1CC[C@@H]2CN(S(=O)(=O)c3ccc(C(F)(F)F)cc3)C[C@@H]21)N(C)C(=O)OC(C)(C)C [Example 333, tert-butyl methyl((2S,3S)-3-methyl-1-oxo-1-((3aR,4S,6aS)-2-(4-(trifluoromethyl)phenylsulfonyl)octahydrocyclopenta[c]pyrrol-4-ylamino)pentan-2-yl)carbamate]"
6,690 nM,"CC[C@H](C)[C@@H](C(=O)N[C@@H]1CC[C@H]2CN(S(=O)(=O)c3cccc(C(F)(F)F)c3)C[C@H]21)N(C)C(=O)OC(C)(C)C [Example 334, tert-butyl methyl((2S,3S)-3-methyl-1-oxo-1-((3aS,4R,6aR)-2-(3-(trifluoromethyl)phenylsulfonyl)octahydrocyclopenta[c]pyrrol-4-ylamino)pentan-2-yl)carbamate]"
7,830 nM,"CC[C@H](C)[C@@H](C(=O)N[C@@H]1CC[C@H]2CN(S(=O)(=O)c3ccc(C(F)(F)F)cc3)C[C@H]21)N(C)C(=O)OC(C)(C)C [Example 335, tert-butyl methyl((2S,3S)-3-methyl-1-oxo-1-((3aS,4R,6aR)-2-(4-(trifluoromethyl)phenylsulfonyl)octahydrocyclopenta[c]pyrrol-4-ylamino)pentan-2-yl)carbamate]"
8,480 nM,"CN(C(=O)OC(C)(C)C)[C@@H](CC(C)(C)C)C(=O)N[C@H]1CC[C@@H]2CN(S(=O)(=O)c3cccc(C(F)(F)F)c3)C[C@@H]21 [Example 336, tert-butyl(S)-4,4-dimethyl-1-oxo-1-((3aR,4S,6aS)-2-(3-(trifluoromethyl)phenylsulfonyl)octahydrocyclopenta[c]pyrrol-4-ylamino)pentan-2-yl(methyl)carbamate]"
9,780 nM,"CN(C(=O)OC(C)(C)C)[C@@H](CC(C)(C)C)C(=O)N[C@H]1CC[C@@H]2CN(S(=O)(=O)c3ccc(C(F)(F)F)cc3)C[C@@H]21 [Example 337, tert-butyl(S)-4,4-dimethyl-1-oxo-1-((3aR,4S,6aS)-2-(4-(trifluoromethyl)phenylsulfonyl)octahydrocyclopenta[c]pyrrol-4-ylamino)pentan-2-yl(methyl)carbamate]"
10,230 nM,"CN(C(=O)OC(C)(C)C)[C@@H](CC(C)(C)C)C(=O)N[C@@H]1CC[C@H]2CN(S(=O)(=O)c3cccc(C(F)(F)F)c3)C[C@H]21 [Example 338, tert-butyl(S)-4,4-dimethyl-1-oxo-1-((3aS,4R,6aR)-2-(3-(trifluoromethyl)phenylsulfonyl)octahydrocyclopenta[c]pyrrol-4-ylamino)pentan-2-yl(methyl)carbamate]"
11,1110 nM,"CN(C(=O)OC(C)(C)C)[C@@H](CC(C)(C)C)C(=O)N[C@@H]1CC[C@H]2CN(S(=O)(=O)c3ccc(C(F)(F)F)cc3)C[C@H]21 [Example 339, tert-butyl(S)-4,4-dimethyl-1-oxo-1-((3aS,4R,6aR)-2-(4-(trifluoromethyl)phenylsulfonyl)octahydrocyclopenta[c]pyrrol-4-ylamino)pentan-2-yl(methyl)carbamate]"
12,1030 nM,"CC(C)[C@@H](C(=O)N[C@@H]1CC[C@H]2CN(S(=O)(=O)c3cccc(C(F)(F)F)c3)C[C@H]21)N(C)C(=O)OC(C)(C)C [Example 340, tert-butyl methyl((S)-3-methyl-1-oxo-1-((3aS,4R,6aR)-2-(3-(trifluoromethyl)phenylsulfonyl)octahydrocyclopenta[c]pyrrol-4-ylamino)butan-2-yl)carbamate]"
13,2010 nM,"CC(C)(C)OC(=O)N[C@H](C(=O)N[C@H]1CC[C@@H]2CN(S(=O)(=O)c3ccc(C(F)(F)F)cc3)C[C@@H]21)C(C)(C)C [Example 341, tert-butyl(S)-3,3-dimethyl-1-oxo-1-((3aR,4S,6aS)-2-(4-(trifluoromethyl)phenylsulfonyl)octahydrocyclopenta[c]pyrrol-4-ylamino)butan-2-ylcarbamate]"
14,2170 nM,"CC(C)(C)OC(=O)N[C@H](C(=O)N[C@@H]1CC[C@H]2CN(S(=O)(=O)c3ccc(C(F)(F)F)cc3)C[C@H]21)C(C)(C)C [Example 342, tert-butyl(S)-3,3-dimethyl-1-oxo-1-((3aS,4R,6aR)-2-(4-(trifluoromethyl)phenylsulfonyl)octahydrocyclopenta[c]pyrrol-4-ylamino)butan-2-ylcarbamate]"
15,1010 nM,"CCCC[C@@H](C(=O)N[C@H]1CC[C@@H]2CN(S(=O)(=O)c3ccc(C(F)(F)F)cc3)C[C@@H]21)N(C)C(=O)OC(C)(C)C [Example 343, tert-butyl methyl((S)-1-oxo-1-((3aR,4S,6aS)-2-(4-(trifluoromethyl)phenylsulfonyl)octahydrocyclopenta[c]pyrrol-4-ylamino)hexan-2-yl)carbamate]"
16,990 nM,"CC(C)(C)C[C@H](NC(=O)OC(C)(C)C)C(=O)N[C@H]1CC[C@@H]2CN(S(=O)(=O)c3ccc(C(F)(F)F)cc3)C[C@@H]21 [Example 344, tert-butyl(S)-4,4-dimethyl-1-oxo-1-((3aR,4S,6aS)-2-(4-(trifluoromethyl)phenylsulfonyl)octahydrocyclopenta[c]pyrrol-4-ylamino)pentan-2-ylcarbamate]"
17,4320 nM,"CC(C)C[C@@H](C(=O)N[C@@H]1CC[C@H]2CN(C(=O)c3cccc(C(F)(F)F)c3)C[C@H]21)N1CCCC1 [Example 345, (2S)-4-methyl-2-pyrrolidin-1-yl-N-{(3aS,4R,6aR)-2-[3-(trifluoromethyl)benzoyl]octahydrocyclopenta[c]pyrrol-4-yl}pentanamide]"
18,9000 nM,"CN[C@@H](CC(C)(C)C)C(=O)N[C@@H]1CC[C@H]2CN(Cc3ccccc3)C[C@H]21 [Example 358, N^1-[(3aS,4R,6aR)-2-benzyloctahydrocyclopenta[c]pyrrol-4-yl]-N^2,4-dimethyl-L-leucinamide]"
